Experimental data published in paper PMC8286840, “Identifying SARS-CoV-2 antiviral compounds by screening for small molecule inhibitors of Nsp3 papain-like protease” (Biochemical Journal, 2021).
Counter-ions that a name gives are not always drawn. Like-named read-outs stand apart in the source and are kept apart here.

Assays:
[1] = target: T1, SARS-CoV-2 PLpro (nsp3 1564–1878) (Severe acute respiratory syndrome coronavirus 2, UniProt P0DTD1); assay: biochemical; design: FRET-quenched peptide (Pro3) cleavage by PLpro, 10 min pre-incubation, slope over 20 min, normalised to no-compound control; details: low concentration screen, read-out: % of control remaining
[2] = target: T1, SARS-CoV-2 PLpro (nsp3 1564–1878); assay: biochemical; design: FRET-quenched peptide (Pro3) cleavage by PLpro, 10 min pre-incubation, slope over 20 min, normalised to no-compound control; details: high concentration screen, read-out: % of control remaining

Structure (SMILES): CC1(C)CCC(c2ccc(Cl)cc2)=C(CN2CCN(c3ccc(C(=O)NS(=O)(=O)c4ccc(N[C@H](CCN5CCOCC5)CSc5ccccc5)c(S(=O)(=O)C(F)(F)F)c4)cc3)CC2)C1 [Navitoclax]
- remaining activity at 1.25 µM ([1]; Well no.=6580): 93.1%
- remaining activity at 1.25 µM ([1]; Well no.=8224): 103%
- remaining activity at 3.75 µM ([2]; Well no.=6580): 92.2%
- remaining activity at 3.75 µM ([2]; Well no.=8224): 94.8%

Structure (SMILES): O[C@H](CNC[C@@H](O)[C@H]1CCc2cc(F)ccc2O1)[C@@H]1CCc2cc(F)ccc2O1 [Nebivolol (hydrochloride)]
- remaining activity at 1.25 µM ([1]; Well no.=8139): 105%
- remaining activity at 3.75 µM ([2]; Well no.=8139): 102%

Structure (SMILES): CN1C(=O)N[C@@H](Cc2c[nH]c3c(Cl)cccc23)C1=O [Necrostatin 2 (S enantiomer)]
- remaining activity at 1.25 µM ([1]; Well no.=7166): 97.6%
- remaining activity at 3.75 µM ([2]; Well no.=7166): 94.3%

Structure (SMILES): CN1C(=O)N[C@H](Cc2c[nH]c3c(Cl)cccc23)C1=O [Necrostatin 2]
- remaining activity at 1.25 µM ([1]; Well no.=6916): 99.4%
- remaining activity at 3.75 µM ([2]; Well no.=6916): 98.6%

Structure (SMILES): CN1C(=O)C(Cc2c[nH]c3ccccc23)NC1=S (stereo not drawn) [Necrostatin-1]
- remaining activity at 1.25 µM ([1]; Well no.=2493): 95.6%
- remaining activity at 1.25 µM ([1]; Well no.=6196): 92.6%
- remaining activity at 1.25 µM ([1]; Well no.=8505): 109%
- remaining activity at 3.75 µM ([2]; Well no.=2493): 98.6%
- remaining activity at 3.75 µM ([2]; Well no.=6196): 92.5%
- remaining activity at 3.75 µM ([2]; Well no.=8505): 104%

Structure (SMILES): COc1ccc(-n2c(SCC#N)nc3sc4c(c3c2=O)CCCC4)cc1 [Necrostatin-5]
- remaining activity at 1.25 µM ([1]; Well no.=6060): 98.5%
- remaining activity at 3.75 µM ([2]; Well no.=6060): 95.8%

Structure (SMILES): CCCc1c2oc(C(=O)O)cc(=O)c2cc2c(=O)cc(C(=O)O)n(CC)c12 [Nedocromil]
- remaining activity at 1.25 µM ([1]; Well no.=6525): 95.3%
- remaining activity at 3.75 µM ([2]; Well no.=6525): 95%

Structure (SMILES): CCc1nn(CCCN2CCN(c3cccc(Cl)c3)CC2)c(=O)n1CCOc1ccccc1 [Nefazodone (hydrochloride)]
- remaining activity at 1.25 µM ([1]; Well no.=6765): 97.2%
- remaining activity at 3.75 µM ([2]; Well no.=6765): 92.8%

Structure (SMILES): CCc1nn(CCCN2CCN(c3cccc(Cl)c3)CC2)c(=O)n1CCOc1ccccc1 [Nefazodone]
- remaining activity at 1.25 µM ([1]; Well no.=2009): 101%
- remaining activity at 3.75 µM ([2]; Well no.=2009): 101%

Structure (SMILES): Cc1c(O)cccc1C(=O)N[C@@H](CSc1ccccc1)[C@H](O)CN1C[C@H]2CCCC[C@H]2C[C@H]1C(=O)NC(C)(C)C [Nelfinavir mesylate]
- remaining activity at 1.25 µM ([1]; Well no.=2201): 95.1%
- remaining activity at 1.25 µM ([1]; Well no.=8156): 102%
- remaining activity at 3.75 µM ([2]; Well no.=2201): 97.3%
- remaining activity at 3.75 µM ([2]; Well no.=8156): 103%

Structure (SMILES): O=C(/C=C/c1ccc(O)c(O)c1)O[C@@H]1C[C@@](O)(C(=O)O)C[C@@H](O)[C@@H]1O [Neochlorogenic acid]
- remaining activity at 1.25 µM ([1]; Well no.=6490): 98%
- remaining activity at 3.75 µM ([2]; Well no.=6490): 98.3%

Structure (SMILES): COc1ccc([C@@H]2CC(=O)c3c(O)cc(O[C@@H]4O[C@H](CO)[C@@H](O)[C@H](O)[C@H]4O[C@@H]4O[C@@H](C)[C@H](O)[C@@H](O)[C@H]4O)cc3O2)cc1O [Neohesperidin]
- remaining activity at 1.25 µM ([1]; Well no.=3444): 98.8%
- remaining activity at 3.75 µM ([2]; Well no.=3444): 98.5%

Structure (SMILES): NC[C@@H]1O[C@H](O[C@H]2[C@@H](O)[C@H](O[C@@H]3[C@@H](O)[C@H](N)C[C@H](N)[C@H]3O[C@H]3O[C@H](CN)[C@@H](O)[C@H](O)[C@H]3N)O[C@@H]2CO)[C@H](N)[C@@H](O)[C@@H]1O [Neomycin]
- remaining activity at 1.25 µM ([1]; Well no.=1911): 94.3%
- remaining activity at 1.25 µM ([1]; Well no.=3419): 87.7%
- remaining activity at 3.75 µM ([2]; Well no.=1911): 94.6%
- remaining activity at 3.75 µM ([2]; Well no.=3419): 90%

Structure (SMILES): CN(C)C(=O)Oc1cccc([N+](C)(C)C)c1 [Neostigmine methyl sulfate]
- remaining activity at 1.25 µM ([1]; Well no.=6077): 102%
- remaining activity at 3.75 µM ([2]; Well no.=6077): 101%

Structure (SMILES): CN(C)C(=O)Oc1cccc([N+](C)(C)C)c1 [Neostigmine]
- remaining activity at 1.25 µM ([1]; Well no.=1558): 106%
- remaining activity at 3.75 µM ([2]; Well no.=1558): 103%

Structure (SMILES): NC(=O)Cc1cccc(C(=O)c2ccccc2)c1N [Nepafenac]
- remaining activity at 1.25 µM ([1]; Well no.=4761): 103%
- remaining activity at 3.75 µM ([2]; Well no.=4761): 104%

Structure (SMILES): NCc1c[nH]c(=S)n1[C@H]1CCc2c(F)cc(F)cc2C1 [Nepicastat hydrochloride]
- remaining activity at 1.25 µM ([1]; Well no.=6033): 100%
- remaining activity at 3.75 µM ([2]; Well no.=6033): 102%

Structure (SMILES): CC(=O)NCCCC[C@H](N)C(=O)O [Nepsilon-Acetyl-L-lysine]
- remaining activity at 1.25 µM ([1]; Well no.=6211): 116%
- remaining activity at 3.75 µM ([2]; Well no.=6211): 106%

Structure (SMILES): CCN[C@@H]1C[C@H](N)[C@@H](O[C@H]2OC(CN)=CC[C@H]2N)[C@H](O)[C@H]1O[C@H]1OC[C@](C)(O)[C@H](NC)[C@H]1O [Netilmicin Sulfate]
- remaining activity at 1.25 µM ([1]; Well no.=4696): 102%
- remaining activity at 3.75 µM ([2]; Well no.=4696): 101%

Structure (SMILES): O=C(O)c1cccnc1 [Niacin]
- remaining activity at 1.25 µM ([1]; Well no.=6401): 102%
- remaining activity at 3.75 µM ([2]; Well no.=6401): 96.9%

Structure (SMILES): O=C(CCNNC(=O)c1ccncc1)NCc1ccccc1 [Nialamide]
- remaining activity at 1.25 µM ([1]; Well no.=1091): 95.4%
- remaining activity at 1.25 µM ([1]; Well no.=1837): 97.6%
- remaining activity at 3.75 µM ([2]; Well no.=1091): 93.8%
- remaining activity at 3.75 µM ([2]; Well no.=1837): 97.3%

Structure (SMILES): COC(=O)C1=C(C)NC(C)=C(C(=O)OCCN(C)Cc2ccccc2)C1c1cccc([N+](=O)[O-])c1 (stereo not drawn) [Nicardipine hydrochloride]
- remaining activity at 1.25 µM ([1]; Well no.=811): 103%
- remaining activity at 3.75 µM ([2]; Well no.=811): 103%

Structure (SMILES): COC(=O)C1=C(C)NC(C)=C(C(=O)OCCN(C)Cc2ccccc2)C1c1cccc([N+](=O)[O-])c1 (stereo not drawn) [Nicardipine.HCl]
- remaining activity at 1.25 µM ([1]; Well no.=1593): 104%
- remaining activity at 3.75 µM ([2]; Well no.=1593): 104%

Structure (SMILES): CO[C@]12C[C@@H](COC(=O)c3cncc(Br)c3)CN(C)[C@@H]1Cc1cn(C)c3cccc2c13 [Nicergoline]
- remaining activity at 1.25 µM ([1]; Well no.=1731): 99.4%
- remaining activity at 1.25 µM ([1]; Well no.=6958): 102%
- remaining activity at 3.75 µM ([2]; Well no.=1731): 102%
- remaining activity at 3.75 µM ([2]; Well no.=6958): 109%

Structure (SMILES): O=C(Nc1ccc([N+](=O)[O-])cc1Cl)c1cc(Cl)ccc1O [Niclosamide]
- remaining activity at 1.25 µM ([1]; Well no.=1093): 99.3%
- remaining activity at 3.75 µM ([2]; Well no.=1093): 97.3%

Structure (SMILES): O=C(NCCO[N+](=O)[O-])c1cccnc1 [Nicorandil]
- remaining activity at 1.25 µM ([1]; Well no.=1812): 99%
- remaining activity at 3.75 µM ([2]; Well no.=1812): 95.8%

Structure (SMILES): NC(=O)c1cccnc1 [Nicotinamide (Niacinamide)]
- remaining activity at 1.25 µM ([1]; Well no.=4884): 97.9%
- remaining activity at 3.75 µM ([2]; Well no.=4884): 94.8%

Structure (SMILES): NC(=O)c1ccc[n+]([O-])c1 [Nicotinamide N-oxide]
- remaining activity at 1.25 µM ([1]; Well no.=6247): 105%
- remaining activity at 1.25 µM ([1]; Well no.=8269): 106%
- remaining activity at 1.25 µM ([1]; Well no.=8347): 101%
- remaining activity at 3.75 µM ([2]; Well no.=6247): 107%
- remaining activity at 3.75 µM ([2]; Well no.=8269): 102%
- remaining activity at 3.75 µM ([2]; Well no.=8347): 92.3%

Structure (SMILES): NC(=O)c1cccnc1 [Nicotinamide]
- remaining activity at 1.25 µM ([1]; Well no.=6305): 102%
- remaining activity at 3.75 µM ([2]; Well no.=6305): 99.5%

Structure (SMILES): O=C(O)c1cccnc1 [Nicotinic Acid]
- remaining activity at 1.25 µM ([1]; Well no.=8286): 95.6%
- remaining activity at 3.75 µM ([2]; Well no.=8286): 96.4%
